According to article PMC2730633 (Bioorganic & medicinal chemistry letters, 2009):
Values belong to the compound of their own block, whether it stands above or below them.

Experiments:
EphB1 = target: T1, EphB1 (Homo sapiens, UniProt P54762); experiment: KinomeScan dose-response dissociation constant; details: KinomeScan binding
T1 sequence (P54762 18-984): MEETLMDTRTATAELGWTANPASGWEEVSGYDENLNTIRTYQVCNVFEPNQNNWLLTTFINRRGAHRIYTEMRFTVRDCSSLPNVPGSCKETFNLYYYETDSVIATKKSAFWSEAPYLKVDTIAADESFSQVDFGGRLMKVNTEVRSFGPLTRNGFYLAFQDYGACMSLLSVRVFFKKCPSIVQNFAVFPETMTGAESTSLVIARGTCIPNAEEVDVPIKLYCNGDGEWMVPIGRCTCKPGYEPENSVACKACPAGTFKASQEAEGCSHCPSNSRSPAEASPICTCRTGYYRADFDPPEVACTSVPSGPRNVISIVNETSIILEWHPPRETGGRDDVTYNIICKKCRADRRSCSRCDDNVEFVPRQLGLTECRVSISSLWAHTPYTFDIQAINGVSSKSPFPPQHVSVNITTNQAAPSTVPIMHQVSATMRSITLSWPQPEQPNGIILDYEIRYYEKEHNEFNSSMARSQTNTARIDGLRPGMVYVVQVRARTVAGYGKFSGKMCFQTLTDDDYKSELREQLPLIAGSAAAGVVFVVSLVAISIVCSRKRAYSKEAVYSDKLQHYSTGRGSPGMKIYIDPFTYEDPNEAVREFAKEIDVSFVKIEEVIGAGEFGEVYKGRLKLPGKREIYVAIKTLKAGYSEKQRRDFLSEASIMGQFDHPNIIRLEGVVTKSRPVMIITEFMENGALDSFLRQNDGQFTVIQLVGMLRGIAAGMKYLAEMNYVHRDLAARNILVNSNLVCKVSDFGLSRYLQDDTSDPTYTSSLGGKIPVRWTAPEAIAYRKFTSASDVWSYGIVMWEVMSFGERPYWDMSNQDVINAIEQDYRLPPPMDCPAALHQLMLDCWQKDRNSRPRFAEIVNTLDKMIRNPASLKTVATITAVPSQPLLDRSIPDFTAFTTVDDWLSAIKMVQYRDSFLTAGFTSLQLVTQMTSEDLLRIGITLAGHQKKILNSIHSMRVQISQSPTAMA

Tel-Lyn = Tel-Lyn (Homo sapiens, UniProt P07948+P41212); experiment: Tyrosine kinase transformed Ba/F3 cellular assay; type: cell-based; details: for cellular activity against Src-family kinases (Tel-Lyn): Ba/F3
Tel-Lyn, sequence (P07948 247-501 limits assumed, one chain of several): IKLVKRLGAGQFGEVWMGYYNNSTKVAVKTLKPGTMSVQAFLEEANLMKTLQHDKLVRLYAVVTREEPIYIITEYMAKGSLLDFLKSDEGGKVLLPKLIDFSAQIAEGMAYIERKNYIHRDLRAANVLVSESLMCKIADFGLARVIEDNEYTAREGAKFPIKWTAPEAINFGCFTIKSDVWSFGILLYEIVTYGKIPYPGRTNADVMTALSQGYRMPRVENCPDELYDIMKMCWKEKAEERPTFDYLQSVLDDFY

[1] = system: b-raf, CSF1R, DDR1, DDR2, EphA2, EphA5, EphA8, EphB1, EphB2, EphB3, Frk, Kit, Lck, p38α, p38β, PDGFRα, PDGFRβ, Raf1; experiment: Ambit KinomeScan panel of 402 kinases, single concentration; type: binding; details: single concentration of 10 µM
EphA6 = target: T2, EphA6 (Homo sapiens, UniProt Q9UF33); experiment: KinomeScan dose-response dissociation constant; details: KinomeScan binding
T2 sequence (Q9UF33 23-1036): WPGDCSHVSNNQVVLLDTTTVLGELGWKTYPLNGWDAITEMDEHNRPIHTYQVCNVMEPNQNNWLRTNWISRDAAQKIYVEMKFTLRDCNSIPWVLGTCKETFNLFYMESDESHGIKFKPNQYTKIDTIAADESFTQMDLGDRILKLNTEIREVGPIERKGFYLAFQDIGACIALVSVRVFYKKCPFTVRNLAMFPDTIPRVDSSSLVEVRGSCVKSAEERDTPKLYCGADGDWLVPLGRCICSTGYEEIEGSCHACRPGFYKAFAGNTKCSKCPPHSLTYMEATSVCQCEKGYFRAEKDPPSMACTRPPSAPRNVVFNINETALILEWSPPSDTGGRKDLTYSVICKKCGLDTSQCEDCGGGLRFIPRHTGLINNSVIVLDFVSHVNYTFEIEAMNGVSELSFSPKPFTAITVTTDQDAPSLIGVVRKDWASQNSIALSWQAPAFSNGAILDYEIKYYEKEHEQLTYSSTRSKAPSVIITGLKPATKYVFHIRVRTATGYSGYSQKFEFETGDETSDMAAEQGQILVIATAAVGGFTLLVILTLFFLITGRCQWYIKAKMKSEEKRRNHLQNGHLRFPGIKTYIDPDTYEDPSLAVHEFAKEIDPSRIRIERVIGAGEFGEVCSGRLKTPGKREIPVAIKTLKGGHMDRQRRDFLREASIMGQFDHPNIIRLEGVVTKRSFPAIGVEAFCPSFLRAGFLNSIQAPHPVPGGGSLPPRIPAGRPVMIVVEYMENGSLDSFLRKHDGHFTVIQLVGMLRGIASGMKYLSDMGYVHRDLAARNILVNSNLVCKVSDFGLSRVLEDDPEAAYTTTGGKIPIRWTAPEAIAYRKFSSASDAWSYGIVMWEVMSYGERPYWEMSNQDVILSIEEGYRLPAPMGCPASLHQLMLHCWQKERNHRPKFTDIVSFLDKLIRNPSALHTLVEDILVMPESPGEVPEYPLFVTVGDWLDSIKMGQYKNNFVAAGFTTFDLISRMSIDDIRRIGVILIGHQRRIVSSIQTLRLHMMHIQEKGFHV

EphA7 = EphA7 (Homo sapiens, UniProt Q15375); experiment: KinomeScan dose-response dissociation constant; type: binding; details: for inhibition of EphA7: KinomeScan binding
EphA7, sequence (Q15375 28-998, species assumed): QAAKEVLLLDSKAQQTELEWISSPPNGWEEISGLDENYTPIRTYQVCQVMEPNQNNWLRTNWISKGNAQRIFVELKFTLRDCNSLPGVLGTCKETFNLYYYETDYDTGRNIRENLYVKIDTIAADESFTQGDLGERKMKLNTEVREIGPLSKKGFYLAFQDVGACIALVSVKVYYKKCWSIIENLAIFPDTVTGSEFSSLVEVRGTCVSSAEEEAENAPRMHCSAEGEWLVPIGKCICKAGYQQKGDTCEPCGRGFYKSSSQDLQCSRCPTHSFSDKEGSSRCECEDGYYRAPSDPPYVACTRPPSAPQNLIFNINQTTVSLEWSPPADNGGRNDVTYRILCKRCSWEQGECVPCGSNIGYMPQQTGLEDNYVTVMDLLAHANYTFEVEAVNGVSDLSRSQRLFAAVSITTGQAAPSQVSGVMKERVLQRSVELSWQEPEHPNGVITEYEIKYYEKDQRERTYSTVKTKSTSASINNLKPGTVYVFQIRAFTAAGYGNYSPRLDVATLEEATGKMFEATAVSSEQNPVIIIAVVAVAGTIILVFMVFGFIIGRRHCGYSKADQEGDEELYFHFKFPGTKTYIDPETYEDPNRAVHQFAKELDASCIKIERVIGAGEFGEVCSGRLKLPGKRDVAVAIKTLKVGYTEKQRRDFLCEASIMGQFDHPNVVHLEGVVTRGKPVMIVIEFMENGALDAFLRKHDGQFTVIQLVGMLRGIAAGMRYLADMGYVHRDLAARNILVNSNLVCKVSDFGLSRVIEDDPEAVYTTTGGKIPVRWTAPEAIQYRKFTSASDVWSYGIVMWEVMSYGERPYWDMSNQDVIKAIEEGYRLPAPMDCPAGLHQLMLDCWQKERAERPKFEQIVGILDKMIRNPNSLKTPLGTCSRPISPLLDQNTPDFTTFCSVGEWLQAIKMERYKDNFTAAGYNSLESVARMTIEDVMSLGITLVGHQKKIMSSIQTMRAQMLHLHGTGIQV

Tel-Src = Tel-Src (Homo sapiens, UniProt P12931+P41212); experiment: Tyrosine kinase transformed Ba/F3 cellular assay; type: cell-based; details: for cellular activity against Src-family kinases (Tel-Src): Ba/F3
Tel-Src, sequence (P12931 270-523 limits assumed, one chain of several): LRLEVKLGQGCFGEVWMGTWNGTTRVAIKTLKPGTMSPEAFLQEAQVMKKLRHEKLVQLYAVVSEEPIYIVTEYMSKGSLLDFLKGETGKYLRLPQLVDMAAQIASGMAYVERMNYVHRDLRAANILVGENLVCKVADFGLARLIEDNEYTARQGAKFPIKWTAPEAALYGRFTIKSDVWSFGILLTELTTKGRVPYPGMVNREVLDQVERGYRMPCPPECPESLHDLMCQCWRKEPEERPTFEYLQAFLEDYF

b-raf = b-raf (Homo sapiens, UniProt P15056); experiment: Cellular activity against b-raf; type: cell-based
b-raf, sequence (P15056 whole entry, species assumed, the tested form may be a part): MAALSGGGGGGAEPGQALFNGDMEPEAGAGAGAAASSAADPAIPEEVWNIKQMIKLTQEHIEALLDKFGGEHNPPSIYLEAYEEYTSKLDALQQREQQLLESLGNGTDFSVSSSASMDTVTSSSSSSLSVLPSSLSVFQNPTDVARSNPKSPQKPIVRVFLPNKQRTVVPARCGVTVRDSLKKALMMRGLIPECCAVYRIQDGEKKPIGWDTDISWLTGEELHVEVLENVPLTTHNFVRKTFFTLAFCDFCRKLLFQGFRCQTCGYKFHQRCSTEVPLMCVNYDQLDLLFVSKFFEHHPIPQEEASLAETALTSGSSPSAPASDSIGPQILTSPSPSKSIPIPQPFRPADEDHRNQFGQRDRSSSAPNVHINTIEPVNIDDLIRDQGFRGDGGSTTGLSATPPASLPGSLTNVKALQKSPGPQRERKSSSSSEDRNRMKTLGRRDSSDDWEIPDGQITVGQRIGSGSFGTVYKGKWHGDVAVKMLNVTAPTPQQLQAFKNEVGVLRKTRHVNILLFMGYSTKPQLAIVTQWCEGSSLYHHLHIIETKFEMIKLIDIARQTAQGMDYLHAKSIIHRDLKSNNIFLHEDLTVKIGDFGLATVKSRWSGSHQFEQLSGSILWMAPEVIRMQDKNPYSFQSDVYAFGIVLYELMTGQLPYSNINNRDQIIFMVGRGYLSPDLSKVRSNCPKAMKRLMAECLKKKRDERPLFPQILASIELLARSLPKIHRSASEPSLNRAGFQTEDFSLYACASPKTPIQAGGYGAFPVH

Tel fusion of EphA3 = target: T3, Tel fusion of EphA3 (Homo sapiens, UniProt P29320); experiment: Tyrosine kinase transformed Ba/F3 cellular assay; type: cell-based; details: Ba/F3 cells transformed with Tel fusion of EphA3
T3 sequence (P29320 621-882): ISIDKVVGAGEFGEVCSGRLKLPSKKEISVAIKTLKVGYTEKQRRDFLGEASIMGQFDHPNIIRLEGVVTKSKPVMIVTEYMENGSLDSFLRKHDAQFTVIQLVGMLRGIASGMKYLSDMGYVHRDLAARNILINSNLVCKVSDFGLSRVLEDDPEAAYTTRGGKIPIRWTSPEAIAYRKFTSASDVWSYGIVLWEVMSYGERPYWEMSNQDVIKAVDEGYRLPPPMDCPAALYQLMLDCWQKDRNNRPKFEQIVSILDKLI
T3 sequence (P41212 40-124 partner): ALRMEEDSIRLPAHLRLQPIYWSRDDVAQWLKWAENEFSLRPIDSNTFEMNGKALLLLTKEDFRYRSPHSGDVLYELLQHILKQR

Bcr-Abl = Bcr-Abl (Homo sapiens, UniProt P00519+P11274); experiment: Tyrosine kinase transformed Ba/F3 cellular assay; type: cell-based; details: for cross reactivity with Bcr-Abl: Ba/F3 panel screen
Bcr-Abl, sequence (P00519 28-1130 limits assumed, one chain of several): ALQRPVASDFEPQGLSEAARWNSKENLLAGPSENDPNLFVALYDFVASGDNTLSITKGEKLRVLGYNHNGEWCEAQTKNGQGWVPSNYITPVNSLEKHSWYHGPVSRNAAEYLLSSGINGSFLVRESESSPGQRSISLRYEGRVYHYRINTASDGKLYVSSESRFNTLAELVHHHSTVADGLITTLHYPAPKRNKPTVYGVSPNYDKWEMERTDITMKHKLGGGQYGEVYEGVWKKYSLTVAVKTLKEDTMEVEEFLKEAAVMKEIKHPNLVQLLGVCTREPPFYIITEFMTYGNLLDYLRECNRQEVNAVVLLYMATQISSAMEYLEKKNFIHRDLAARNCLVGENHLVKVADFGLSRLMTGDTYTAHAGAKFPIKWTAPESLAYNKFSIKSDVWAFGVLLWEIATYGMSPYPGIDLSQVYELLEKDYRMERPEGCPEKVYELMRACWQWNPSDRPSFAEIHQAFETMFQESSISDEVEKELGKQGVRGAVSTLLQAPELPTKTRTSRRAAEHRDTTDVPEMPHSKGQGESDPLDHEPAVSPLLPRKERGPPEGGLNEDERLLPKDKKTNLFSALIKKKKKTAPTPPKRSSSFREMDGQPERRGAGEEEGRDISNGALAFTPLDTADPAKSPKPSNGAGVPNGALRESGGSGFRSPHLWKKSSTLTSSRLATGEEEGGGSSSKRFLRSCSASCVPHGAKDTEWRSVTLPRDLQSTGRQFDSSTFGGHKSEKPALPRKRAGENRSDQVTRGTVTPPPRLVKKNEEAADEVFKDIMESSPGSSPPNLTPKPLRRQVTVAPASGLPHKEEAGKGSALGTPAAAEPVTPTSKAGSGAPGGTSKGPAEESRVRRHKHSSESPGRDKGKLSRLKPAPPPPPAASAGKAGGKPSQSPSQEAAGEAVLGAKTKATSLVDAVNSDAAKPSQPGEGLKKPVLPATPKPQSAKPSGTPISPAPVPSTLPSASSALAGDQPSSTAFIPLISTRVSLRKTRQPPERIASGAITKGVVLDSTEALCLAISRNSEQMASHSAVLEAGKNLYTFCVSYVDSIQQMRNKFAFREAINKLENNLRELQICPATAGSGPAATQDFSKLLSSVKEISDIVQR

Eph-family kinases = experiment: Invitrogen SelectScreen biochemical kinase activity assay; details: [Km,app] ATP, starting concentration 10 µM
FGFR3 = FGFR3 (Homo sapiens, UniProt P22607); experiment: Tyrosine kinase transformed Ba/F3 cellular assay; type: cell-based; details: Ba/F3 panel screen, printed FGFR2/3/4
FGFR3, sequence (P22607 472-761 limits assumed): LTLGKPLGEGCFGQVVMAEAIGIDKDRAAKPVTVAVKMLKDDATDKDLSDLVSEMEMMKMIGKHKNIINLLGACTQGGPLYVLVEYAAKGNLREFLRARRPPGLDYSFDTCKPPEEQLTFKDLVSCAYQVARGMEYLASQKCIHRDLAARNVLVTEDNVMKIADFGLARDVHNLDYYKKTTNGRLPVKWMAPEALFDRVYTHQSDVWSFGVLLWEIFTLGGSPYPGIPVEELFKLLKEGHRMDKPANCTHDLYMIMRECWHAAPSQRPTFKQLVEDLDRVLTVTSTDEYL

FGFR2 = FGFR2 (Homo sapiens, UniProt P21802); experiment: Tyrosine kinase transformed Ba/F3 cellular assay; type: cell-based; details: Ba/F3 panel screen, printed FGFR2/3/4
FGFR2, sequence (P21802 481-770 limits assumed, species assumed): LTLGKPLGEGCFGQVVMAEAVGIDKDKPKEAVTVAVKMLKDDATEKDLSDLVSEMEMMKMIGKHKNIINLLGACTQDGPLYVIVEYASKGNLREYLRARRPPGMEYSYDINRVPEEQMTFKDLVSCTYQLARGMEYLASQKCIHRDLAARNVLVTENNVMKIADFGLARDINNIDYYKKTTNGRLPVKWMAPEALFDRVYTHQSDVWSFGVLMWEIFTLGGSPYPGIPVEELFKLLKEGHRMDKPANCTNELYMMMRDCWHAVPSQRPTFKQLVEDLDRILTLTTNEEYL

FGFR4 = FGFR4 (Homo sapiens, UniProt P22455); experiment: Tyrosine kinase transformed Ba/F3 cellular assay; type: cell-based; details: Ba/F3 panel screen, printed FGFR2/3/4
FGFR4, sequence (P22455 467-755 limits assumed): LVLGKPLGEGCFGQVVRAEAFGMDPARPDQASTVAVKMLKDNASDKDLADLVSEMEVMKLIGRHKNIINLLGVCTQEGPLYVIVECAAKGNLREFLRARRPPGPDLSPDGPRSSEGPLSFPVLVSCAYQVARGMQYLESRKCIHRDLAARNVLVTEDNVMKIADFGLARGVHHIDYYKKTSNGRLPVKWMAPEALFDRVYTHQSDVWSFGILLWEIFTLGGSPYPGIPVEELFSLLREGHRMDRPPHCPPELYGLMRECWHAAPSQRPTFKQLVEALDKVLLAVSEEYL

EphB2 = target: T4, EphB2 (Homo sapiens, UniProt P29323); details: proteomic and cellular screening approaches ref 10, 9; cited from earlier work
T4 sequence (P29323 19-1055): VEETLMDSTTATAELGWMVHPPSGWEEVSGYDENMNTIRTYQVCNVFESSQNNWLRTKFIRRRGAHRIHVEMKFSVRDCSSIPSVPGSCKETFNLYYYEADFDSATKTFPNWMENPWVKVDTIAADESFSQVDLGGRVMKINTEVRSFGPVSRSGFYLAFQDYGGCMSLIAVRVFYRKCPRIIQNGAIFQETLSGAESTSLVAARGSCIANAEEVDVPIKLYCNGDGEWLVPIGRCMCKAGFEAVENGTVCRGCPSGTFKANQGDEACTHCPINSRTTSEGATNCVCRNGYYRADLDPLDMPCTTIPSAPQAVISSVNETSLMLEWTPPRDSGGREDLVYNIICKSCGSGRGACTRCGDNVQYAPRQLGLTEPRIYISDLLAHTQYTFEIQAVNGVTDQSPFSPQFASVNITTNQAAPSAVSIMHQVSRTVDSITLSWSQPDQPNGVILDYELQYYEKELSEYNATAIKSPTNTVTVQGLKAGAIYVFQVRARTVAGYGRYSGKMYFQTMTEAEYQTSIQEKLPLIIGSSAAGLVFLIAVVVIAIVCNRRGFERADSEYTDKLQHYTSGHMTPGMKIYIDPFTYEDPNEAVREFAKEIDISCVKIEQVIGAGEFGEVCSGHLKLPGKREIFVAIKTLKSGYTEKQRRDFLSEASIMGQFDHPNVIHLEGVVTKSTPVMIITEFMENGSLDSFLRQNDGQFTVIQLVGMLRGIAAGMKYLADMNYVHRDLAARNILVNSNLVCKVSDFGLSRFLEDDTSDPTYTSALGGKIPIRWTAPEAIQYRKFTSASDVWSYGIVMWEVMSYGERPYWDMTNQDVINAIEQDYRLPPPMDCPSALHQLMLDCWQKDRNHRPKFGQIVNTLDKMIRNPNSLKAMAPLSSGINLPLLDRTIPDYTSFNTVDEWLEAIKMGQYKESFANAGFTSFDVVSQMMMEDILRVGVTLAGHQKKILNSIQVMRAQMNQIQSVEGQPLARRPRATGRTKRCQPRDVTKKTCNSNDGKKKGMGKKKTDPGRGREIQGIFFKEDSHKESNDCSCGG

[2] = system: Bcr-Abl threonine to isoleucine gatekeeper substitution; details: threonine to isoleucine substitution of the gatekeeper position ref 21; cited from earlier work

Structure (SMILES): Cc1cn(-c2cc(NC(=O)c3ccc(C)c(NC(=O)c4ccno4)c3)cc(C(F)(F)F)c2)cn1 [Compound 6]
- inhibition of EphB1 (EphB1): not inhibited
- cellular activity against Src-family kinases (Tel-Lyn) (Tel-Lyn): did not exhibit significant cellular activity
- selectivity profile (binding to kinases) [1]: binding to a common set of kinases
- inhibition of EphA6 (EphA6): not inhibited
- inhibition of EphA7 (EphA7): not inhibited
- cellular activity against Src-family kinases (Tel-Src) (Tel-Src): did not exhibit significant cellular activity
- cellular activity against b-raf (b-raf): did not exhibit significant cellular activity

Structure (SMILES): Cc1nc(Nc2ncc(C(=O)Nc3c(C)cccc3Cl)s2)cc(N2CCN(CCO)CC2)n1 [dasatinib]
- EphB2 as target (EphB2): identified as a target

Structure (SMILES): Cc1cn(-c2cc(NC(=O)c3ccc(C)c(Nc4nccc(-c5cccnc5)n4)c3)cc(C(F)(F)F)c2)cn1 [nilotinib]
- inhibition of Bcr-Abl gatekeeper mutation [2]: not inhibited
- EphB2 as target (EphB2): identified as a target

Now from value to compound, other results behind:

- EC50 (Tel-Lyn; Ba/F3 cells transformed with Tel fusion of Lyn): < 500 nM
- EC50 (Tel fusion of EphA3): < 500 nM
- EC50 (Tel-Src): < 500 nM
- EC50 (Bcr-Abl; Ba/F3 cells transformed with Bcr-Abl): < 500 nM
- cross reactivity with Bcr-Abl (Bcr-Abl): cross reactivity
Structure (SMILES): CCN1CCN(Cc2ccc(NC(=O)c3ccc(C)c(NC(=O)c4cncc(-c5cccs5)c4)c3)cc2C(F)(F)F)CC1 [Compound 7]
- selectivity profile (binding to kinases) [1]: inhibited all these kinases and many more

- inhibition of EphB1 (EphB1): not inhibited
- selectivity profile (binding to kinases) [1]: binding to a common set of kinases
- inhibition of EphA6 (EphA6): not inhibited
- inhibition of EphA7 (EphA7): not inhibited
- cross reactivity with Bcr-Abl (Bcr-Abl): cross reactivity
Structure (SMILES): Cc1ccc(C(=O)Nc2cccc(C(F)(F)F)c2)cc1Nc1ccc2occc(=O)c2c1 [Compound 8]

- inhibition of EphB1 (EphB1): not inhibited
- selectivity profile (binding to kinases) [1]: binding to a common set of kinases
- inhibition of EphA6 (EphA6): not inhibited
- affinity for EphA7 (EphA7): relatively low affinity
- inhibition of EphA7 (EphA7): not inhibited
Structure (SMILES): Cc1ccc(C(=O)Nc2cccc(C(F)(F)F)c2)cc1Nc1cncc(C(N)=O)c1 [Compound 9]
- cellular activity against Src-family kinases (Tel-Lyn) (Tel-Lyn): did not exhibit significant cellular activity
- cellular activity against Src-family kinases (Tel-Src) (Tel-Src): did not exhibit significant cellular activity
- selectivity and potency (IC50) (Eph-family kinases): good selectivity for Eph-family kinases with moderate potency
- cellular activity against b-raf (b-raf): did not exhibit significant cellular activity

- cross reactivity with FGFR3 (FGFR3): cross reactivity
- cross reactivity with FGFR2 (FGFR2): cross reactivity
- cross reactivity with FGFR4 (FGFR4): cross reactivity
Structure (SMILES): Cc1ccc(C(=O)Nc2cccc(C(F)(F)F)c2)cc1Nc1[nH]cnc2ncnc1-2 [Compound 10]
